The text below walks through data of a melting point compilation (Tetko et al.; mined from patent text by program, amines drawn as free bases though some values may be those of a salt).

Some results are limits rather than exact numbers.

For `C/C(=N\OCCBr)[C@H]1CC[C@H]2[C@@H]3CCC4=CC(=O)CC[C@]4(C)[C@H]3CC[C@]12C`, the melting point (as a rule, the temperature, or range, at which the solid turns liquid) fell in the range of 96 to 98 °C.

With `CCOC(=O)C1=C(C)NC(C#N)=C(C(=O)OCC)C1c1ccccc1Cl` (stereo not drawn), the melting point was in the range of 136 to 137 °C.

For `COC(=O)Cc1c(Cl)nc(-c2ccccc2)n1Cc1ccc(C)cc1`, the melting point lay in the range of 92 to 95 °C.

Compound `CCOC(=O)C(C)(CCCN(C)CCc1ccc(OC)c(OC)c1)c1ccc(OC)c(OC)c1` (stereo not drawn) returned a melting point of 118 to 121 °C.

In turn, `CC(=S)NCC1CN(c2ccc(N3CCC4(CC3)NC(=O)NC4=O)c(F)c2)C(=O)O1` (stereo not drawn) returned a melting point of 218 °C.

As for `Nc1ccccc1CNC(=O)C1Cc2ccccc2N1S(=O)(=O)c1ccc(-c2ccc(F)cc2Cl)cc1` (stereo not drawn), the melting point fell in the range of 85 to 90 °C.

Take `Cc1cc(-c2ccccc2O)n(-c2ccccc2)n1`: the melting point lay in the range of 211 to 214 °C.

`CCOC(=O)c1ncn2c1CN(Cc1ccc(OC)cc1OC)C(=O)c1sccc1-2` came in with a melting point of 168 °C.

On to `CCCCCCC(C(=O)O)n1nnc(NC(=O)c2ccccc2C(=O)O)n1` (stereo not drawn), for which the melting point was in the range of 140 to 142 °C.

In turn, `CCCCCCCCCCCCCCCCCCOc1cc(C(=O)O)cc(C(=O)N(CC(=O)O)CC(=O)O)c1` displayed a melting point of 108 to 112 °C.

`NCCc1c[nH]c2ccc(NC(=O)Nc3ccccc3)cc12` came in with a melting point of 192 to 194 °C.

In turn, `CCC(CC)(CCCS(N)(=O)=O)COc1nn2ccnc2cc1C` yielded a melting point of 139 to 140 °C.

Take `O=C(CCCBr)Nc1ccc(O)cc1`: the melting point fell in the range of 142 to 144 °C.

`Cn1cc(-c2cccc(N3Cc4cc(C(C)(C)C)ccc4C3=O)c2CO)nc(Nc2ccc(N3CCOCC3)cc2)c1=O` displayed a melting point of 225 to 227 °C.

Regarding `Cc1cc(CCCCNc2nc(CO)nn2C)sc1C=O`, the melting point was 118 to 121 °C.

In turn, `O=C(NCCc1ccc(O)c(F)c1)OCc1ccccc1` gave a melting point of 89 to 90 °C.

`COc1ccc2c(c1)C(=O)N(c1ccc3c(c1)N(C)CCN3C)C2` came in with a melting point of 137 to 142 °C.

In the case of `COCc1ncccc1CN(CCn1ccc2oc(C)cc2c1=O)Cc1ccc2c(c1)N(C)C(=O)C(C)(C)C(=O)N2C1CC1`, the melting point is 146 to 148 °C.

As for `COc1cn(-c2ccc(O)cc2F)nc(-c2ccnn2-c2ccccc2)c1=O`, the melting point lay within 223 to 224 °C.

In the case of `Cc1ccccc1C(=O)CN1C(=O)C(NC(=O)Nc2cccc(CC(O)=S)c2)CN(C(=O)C(C)(C)C)c2ccccc21` (stereo not drawn), the melting point lay in the range of 127 to 130 °C.

The compound `COc1cc2[nH]cc(C(=O)Nc3cccnc3)c2cc1Br` registered a melting point greater than 250 °C.

As for `OC(Cn1ccnc1)(Cn1cncn1)c1ccc(Cl)cc1Cl` (stereo not drawn), the melting point lay in the range of 169 to 170 °C.

Turning to `O=C(ON=C(Br)Br)c1ccc(Cl)cc1`, the melting point was 93 to 97 °C.

In the case of `O=C(NC(Cc1c[nH]c2ccccc12)C(=O)O)c1ccccc1Cl` (racemic), the melting point fell in the range of 56 to 70 °C.

`CCC1=C(C#N)C(c2ccccc2OC)c2c[nH]nc2N1` (stereo not drawn) registered a melting point of 230 to 232 °C.

For `Cc1cc(C)n2ncc(Br)c2n1`, the melting point is 115 to 116 °C.

As to `COC(=O)c1[nH]cc(C(=O)NCc2ccc(F)cc2)c(=O)c1OC`, the melting point fell in the range of 242 to 244 °C.

Compound `Cc1c(-c2ccc(O)cc2)n(Cc2ccc(/C=C/C(=O)N(C)C)cc2)c2ccc(O)cc12` gave a melting point of 278 to 280 °C.

For the compound `Cn1nnc(COc2nn3c(-c4ccccc4)nnc3cc2-c2ccccc2)n1`, the melting point was 228 to 233 °C.

`COC(=O)Cc1ccc(N[C@@H](CCC(N)=O)C(=O)O)cc1` had a melting point of 183 to 184 °C.

In the case of `CCOC(=O)c1csc(/C=C/c2cccc(NC(=O)Cc3ccccc3C(=O)O)c2)n1`, the melting point was in the range of 221 to 223 °C.

In turn, `O=C(N[C@@H](CSC(=O)c1ccccc1)C(=O)N[C@@H](Cc1c[nH]c2ccccc12)C(=O)O)c1ccccc1` came in with a melting point of 175 to 178 °C.

Regarding `CCOC(=O)c1cc2c3n(ccc-2n1)CC(c1cccc(OC)c1)=N3`, the melting point lay in the range of 198 to 200 °C.

For `CCOC(=O)C[C@@H]1C(=O)N(S(=O)(=O)c2ccc(OC)cc2)C=C[C@@H]1c1ccc(OC)cc1`, the melting point was in the range of 107 to 110 °C.

The compound `CC(=O)NC1CCCN(c2c(F)cc3c(=O)c(C(=O)O)cn(C4CC4)c3c2F)C1` (stereo not drawn) displayed a melting point of 280 to 282 °C.

Regarding `CN(C)C(=O)c1cnn2ccccc12`, the melting point was in the range of 86 to 87 °C.

In turn, `CCN(CC)CC/C=C/c1cc2ncc(C#N)c(Nc3ccc(Sc4nccn4C)c(Cl)c3)c2cc1OC` showed a melting point of 194 to 202 °C.

As to `CS(=O)(=O)N1CCN(c2ccc(N)cc2)CC1`, the melting point lay in the range of 192 to 193 °C.

As for `O=C(O)C(=O)c1ccc(CCCOc2ccc3ccccc3c2)cc1`, the melting point is 151 to 154 °C.

With `COCCOc1ccc(/C=C/C(=O)NS(=O)(=O)c2cccc(C#N)c2)c(Oc2ncc(C(F)(F)F)cc2Cl)c1`, the melting point lay within 195 to 197 °C.

Turning to `CC(C)(C)OC(=O)c1ncn2c1[C@@H]1CCN1C(=O)c1c(I)cccc1-2`, the melting point is 249 to 250 °C.

As for `C=C(C)n1cc(C(=O)O)c(=O)c2cc(F)c(N3CC[C@H](N)C3)cc21`, the melting point was in the range of 249 to 255 °C.

`N#CC(C(=O)NCC(=O)O)C(=O)c1nn(-c2ccccc2)c2c1CSc1ccccc1-2` (stereo not drawn) displayed a melting point of 224 to 226 °C.

`CCCOc1cnc(CO)cc1O`: the melting point lay in the range of 159 to 160 °C.

`O=C(O)C(=O)c1ccc(OCC(=O)N2CCC(c3ccccc3)CC2)cc1` gave a melting point of 209 to 210 °C.

`COc1ccc(CC(C)CC(C(=O)C(CC(C)Cc2ccc(OC)c(OC)c2)N2C(=O)c3ccccc3C2=O)N2C(=O)c3ccccc3C2=O)cc1OC` (stereo not drawn) had a melting point of 128 °C.

With `Cc1ccc(-c2noc3c(Cl)c(OCC(=O)O)ccc23)s1`, the melting point lay in the range of 235 to 238 °C.

For `CCCCC1(CC)OCc2c1cnc(C)c2OCC(=O)O` (stereo not drawn), the melting point was 193 °C.

As for `CNS(=O)(=O)c1ccc(C)cc1C(=O)O`, the melting point was in the range of 140 to 141 °C.

With `O=C(O)Cc1ccc2ccn(Cc3ccccc3)c2c1`, the melting point fell in the range of 109 to 111 °C.

`Nc1ncc(Br)cc1O`: the melting point fell in the range of 195 to 197 °C.

In the case of `O=c1ccn(-c2cc3[nH]c(=O)c(=O)[nH]c3cc2C(F)(F)F)cc1`, the melting point lay in the range of 410 to 420 °C.

Compound `OC(c1ccccc1)C1CCN(CCCc2ccccc2)CC1` (stereo not drawn) came in with a melting point of 87 to 88 °C.

The compound `COc1ccc(CNC(=O)c2ccccc2)cc1OC` came in with a melting point of 101 to 102 °C.

`Cc1c(C)c2c(c(C)c1N)C(c1ccc(C(C)C)cc1)C(C)(C)O2` (stereo not drawn): the melting point fell in the range of 130 to 132 °C.

The compound `O=CNc1ccccc1CCO` registered a melting point of 49 to 54 °C.

`[N-]=[N+]=NCc1ccc(C(=O)c2ccc(Cl)cc2)c(Cl)c1` displayed a melting point of 33 to 33.5 °C.

Regarding `Cc1nc(-c2ccc(OCc3ccncc3)cc2)no1`, the melting point lay within 132 to 133 °C.

Regarding `COc1cc2c(cc1OC)CN(CCc1ccc(N)cc1)C2`, the melting point was 150 °C.

In turn, `COc1cc(C=CC=O)ccc1OCc1coc(-c2ccccc2)n1` showed a melting point of 144 to 145 °C.

As for `COc1cc(-c2cc3c(Cl)ccnc3[nH]2)cc(OC)c1OC`, the melting point lay within 188 to 190 °C.

Turning to `O=C(On1nnc2ccc(Cl)cc21)c1ccccc1`, the melting point stood at 132 °C.

Compound `CNN1CSC(=Cc2cc(C(C)(C)C)c(O)c(C(C)(C)C)c2)C1=O` showed a melting point of 151 to 154 °C.

In the case of `Cc1ccccc1CCOS(N)(=O)=O`, the melting point lay in the range of 50 to 52 °C.

`C=CON=C(C(=O)OCC)c1csc(NC(c2ccccc2)(c2ccccc2)c2ccccc2)n1` showed a melting point of 114 °C.

The compound `CC(OCc1ccc(-c2ccc(Cl)cc2)cc1)(C(=O)O)c1ccccc1` (stereo not drawn) registered a melting point of 125 to 126 °C.

In turn, `Cc1c2c(cc3ccc(O)cc13)-c1ccc(O)cc1CO2` showed a melting point of 224 to 226 °C.

In turn, `COc1cc(N)c(Cl)cc1C(=O)NCC1CCN(CCCS(=O)(=O)Cc2ccc(F)cc2)CC1` had a melting point of 147 to 148 °C.

`CCCn1c(=O)c(=O)[nH]c2cc([N+](=O)[O-])c(-n3ccc(=O)c([N+](=O)[O-])c3)cc21` gave a melting point greater than 300 °C.

For `COc1ccc(CNc2nn(CC(=O)O)c(=O)c3ccc(C#N)cc23)cc1Cl`, the melting point fell in the range of 173 to 175 °C.

The compound `CCOC(=O)C1=C(C)NC(COC(C)=O)=C(C(=O)OCC)C1c1cccc([N+](=O)[O-])c1` (stereo not drawn) came in with a melting point of 133 to 135 °C.

Compound `Cc1oc(C=Cc2cccc(C(F)(F)F)c2)nc1C(=O)O` gave a melting point of 204 to 205 °C.

For the compound `CC(C)Nc1nc(Cl)nc(NCCS)n1`, the melting point fell in the range of 141 to 146 °C.

Consider `COC(=O)C1=C(CC(=O)N2CCN(C)CC2)NC(CS(=O)c2ccccc2C)=C(C(=O)OC)C1c1c(Cl)cccc1Cl` (stereo not drawn), for which the melting point was found to be 183 °C.

In turn, `CC(=O)SC(CC(=S)c1ccc(-c2ccccc2)cc1)C(=O)O` (stereo not drawn) came in with a melting point of 116 to 118 °C.

Turning to `CC(C)(C)OC(=O)CCON=C(C(=O)O)c1ccco1`, the melting point was in the range of 74.7 to 77.2 °C.

On to `Cc1cc(-c2ccc(Cl)cc2)cnc1N`, for which the melting point worked out at 156 °C.

For the compound `COC(=O)C12COc3cc(F)ccc3N1N=C(C(=O)Nc1ccc(C(F)(F)F)cc1)C2` (stereo not drawn), the melting point lay in the range of 178 to 181 °C.

`CCN(CC=C(Cl)Cl)C(=O)Nc1ccc(Cl)c(Cl)c1` registered a melting point of 105 to 106 °C.

In turn, `O=C1C(c2ccccc2)=C(c2ccc(Cl)cc2)C(=O)N1c1ccc(Cl)cc1` showed a melting point of 157 °C.

Take `CCCCNC(=O)Nc1ccccc1C(=O)NC1CCN(C(c2ccccc2)c2ccccc2)CC1`: the melting point lay within 204 to 206 °C.

Compound `Cc1ccc(S(=O)(=O)N2Cc3sccc3-n3cccc3C2)cc1` registered a melting point of 165 °C.

For the compound `CC=CCn1c(C)c(C)c2cnnc(OCc3cc(F)cc(F)c3)c21`, the melting point was 78 to 84 °C.

The compound `CCCC(O)(CCC)c1ccc(C2=CC=CC(OCc3ccc(CO)c(CO)c3)C2(C)C)cc1` (stereo not drawn) returned a melting point of 118 to 120 °C.

Take `Nc1cc2c(cc1C(=O)c1ccccc1)OCO2`: the melting point lay in the range of 160 to 161 °C.

For `Cc1nc(C#N)ccc1O`, the melting point lay within 201 to 205 °C.

In the case of `CC=C1CCC2C3CCC4CC(O)C(OCC)CC4(C)C3C(N)CC12C` (stereo not drawn), the melting point was 65 to 70 °C.

In turn, `COc1ccnc(CS(=O)c2nc3cc4c(cc3[nH]2)OC(F)(F)O4)c1` (stereo not drawn) yielded a melting point of 184 to 185 °C.
